Measurements published in patent EP4309654A1, “INDOLE-3-CARBINOL IN COMBINATION WITH IBRUTINIB FOR THE TREATMENT OF B LYMPHOID NEOPLASMS” (Consejo Superior de Investigaciones Científicas (CSIC), priority 2022, dated 2024).

How the values were obtained:
[1] = in blood; cited from earlier work
[2] = tested on: different types of solid tumours; experiment: Viability of different types of solid tumour cell lines; format: cell-based; conditions: HCC1954, A375P, HCT116, HT1080, pancreatic cancer lines 185 and 354
From the text: We studied the effect of I3C alone or in combination with different drugs commonly used in the clinic for the targeted treatment of solid tumours of various origins. We used the ductal breast cancer line HCC1954 and the drug Lapatinib, the melanoma line A375P and the drug Vemurafenib, the colorectal cancer line HCT116 and the drug 5-fluorouracil, the sarcoma line HT1080 and the experimental drug ADC, and two primary pancreatic cancer lines 185 and 354 and the drug Abraxane. Results obtained (Fig. 11) shown that I3C has no effect on different types of solid tumours.

SMILES: OCc1c[nH]c2ccccc12 [I3C, (1H-indol-3-yl)methanol]
- bioavailability [1]: 22 µM
- effect on solid tumours (viability) [2]: no effect
